We go through 35 molecules from paper PMC12751012, “Nanoscale Direct-to-Biology Optimization and Structural Insights into Selective S. aureus TrmD Inhibitors” (Journal of Medicinal Chemistry, 2025).

The target in assay [1] is T1, S. aureus TrmD (Staphylococcus aureus, UniProt Q2FZ43).
T1 construct: made in house; host or cells: E. coli BL21
T1 sequence (Q2FZ43 1-245): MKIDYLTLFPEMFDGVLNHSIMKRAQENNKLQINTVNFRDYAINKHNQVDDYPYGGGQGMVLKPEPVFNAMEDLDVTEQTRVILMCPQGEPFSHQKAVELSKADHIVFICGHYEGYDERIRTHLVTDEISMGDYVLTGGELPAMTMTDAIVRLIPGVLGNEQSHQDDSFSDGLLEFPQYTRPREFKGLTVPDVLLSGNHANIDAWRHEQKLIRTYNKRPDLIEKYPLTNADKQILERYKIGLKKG
Nature of the assay: Fluorescence polarization (FP) assay, tracer 4, S. aureus TrmD. The assay is classed as binding. As for the experimental part: To enable the screening of hundreds of nanomole-scale synthesized compounds, the implementation of a high-throughput-capable RNA methyltransferase (MTase) assay is considered fundamental. […] In this assay format, a fluorescent, SAM-pocket binding tracer can be displaced by the compound under investigation, and the resulting change in fluorescence polarization defines the read-out of the inhibitor compound’s affinity (Figure A).
Fluorescence polarization (FP) assays were performed as follows. The assays for H. influenzae TrmD have been described previously. All assays were conducted in technical triplicate using black 96-well half area plates. For the FP assays, a tracer (20 nM Cy5TPD for E. coli and H. influenzae TrmD, 10 nM tracer 4 for S. aureus TrmD) was mixed with the respective enzyme (2 μM E. coli TrmD, 2 μM H. influenzae TrmD, 500 nM S. aureus TrmD) in buffer (E. coli and H. influenzae TrmD: 50 mM HEPES, 500 mM NaCl, 5% Glycerol, pH 7.5, S. aureus TrmD: 40 mM Tris HCl, 100 mM NaCl, 10 mM MgCl2, 5% Glycerol, pH 7.5). The compounds were added in varying concentrations for K D-value determination. […] The Z-factor for tracer 4 was determined by measuring 48 replicates of the free tracer (positive controls, PC) and 48 replicates of a mixture of enzyme and tracer (negative controls, NC). The Z-factor is defined in terms of the means (μ) and standard deviations (σ) of the positive and negative controls and calculated as Z = 1–(3*(σnc + σpc)/(μnc–μpc)). […] Polarization values (mP) were determined from polarization-specific parallel and orthogonal fluorescence intensities. K D-values were calculated in GraphPad Prism 8.0.1 using the four-parameter Hill equation: y(% tracer bound) = bottom + ([ligand]-slope) × (top–bottom)/([ligand]-slope + K Dslope).
A general note: Polarisation of emitted light reports the rotation of a fluorescent probe.

Assay [2] concerns the target T1, S. aureus TrmD. Nature of the assay: nanoSAR direct-to-biology FP displacement screening of crude triazoles. Format: binding. To be noted: crude triazole at 1 μM, assuming full conversion, 500 nM TrmD, 10 nM tracer 4; for inhibition at 1 µM: read-out: % displaced tracer. In a few lines: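 Crude CuAAC triazoles from alkyne 7 and 320 diverse azides were screened by FP displacement of 10 nM tracer 4 from 500 nM S. aureus TrmD. Buffer was 40 mM Tris HCl, 100 mM NaCl, 10 mM MgCl2, 5% glycerol, pH 7.5.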

Setting [3] is: apparent affinity, purified compound, 500 nM TrmD, 10 nM tracer 4, read-out: KD S. aureus TrmD (FP displacement assay).

Molecules are shown by their SMILES. Where two headings read alike, the source gives them in different places.

With `C#Cc1c[nH]c2nc[nH]c(=O)c12` [Compound 7, 5-Ethynyl-3,7-dihydro-4H-pyrrolo[2,3-d]pyrimidin-4-one], the Kd in assay [1] (setting [3]) was more than 100 µM.

On to `CC(=O)NCCCn1cc(-c2c[nH]c3nc[nH]c(=O)c23)nn1` [Compound 8a, N-(3-(4-(4-Oxo-4,7-dihydro-3H-pyrrolo[2,3-d]pyrimidin-5-yl)-1H-1,2,3-triazol-1-yl)propyl)acetamide], for which the Kd is 10.4 ± 1.8 µM in assay [1] (setting [3]) and 4.98 µM in assay [1] (crude nanomole-scale reaction mixture, read-out: KD(in situ) S. aureus TrmD (FP displacement assay)).

In the case of `O=c1[nH]cnc2[nH]cc(-c3cn(Cc4cnns4)nn3)c12` [Compound 03G02, S1N=NC=C1CN2N=NC(C=3C=4C(=O)NC=NC4NC3)=C2], the inhibition at 1 µM in assay [2] was found to be 73%.

With `O=c1[nH]cnc2[nH]cc(-c3cn(CC4CC(F)(F)C4)nn3)c12` [Compound 02G04, F[C@@]1(F)C[C@@H](CN2N=NC(C=3C=4C(=O)NC=NC4NC3)=C2)C1], the inhibition at 1 µM in assay [2] stood at 15%.

In the case of `O=c1[nH]cnc2[nH]cc(-c3cn(CCOc4ccc(Cl)cc4)nn3)c12` [Compound 03H10, Clc1ccc(OCCN2N=NC(C=3C=4C(=O)NC=NC4NC3)=C2)cc1], in assay [2], the inhibition at 1 µM is 85%.

`N#CCC1(Cn2cc(-c3c[nH]c4nc[nH]c(=O)c34)nn2)CC1` [Compound 03A06, O=C1NC=NC=2NC=C(C=3N=NN(C3)CC4(CC#N)CC4)C12]: the inhibition at 1 µM in assay [2] turned out to be 65%.

As for `COC(=O)c1ccc(-n2cc(-c3c[nH]c4nc[nH]c(=O)c34)nn2)cc1` [Compound 03D08, O=C(OC)c1ccc(N2N=NC(C=3C=4C(=O)NC=NC4NC3)=C2)cc1], in assay [2], the inhibition at 1 µM amounted to 11%.

For `CCc1nc(Cn2cc(-c3c[nH]c4nc[nH]c(=O)c34)nn2)cs1` [Compound 01E03, S1C(=NC(=C1)CN2N=NC(C=3C=4C(=O)NC=NC4NC3)=C2)CC], the inhibition at 1 µM in assay [2] came to 75%.

Turning to `O=c1[nH]cnc2[nH]cc(-c3cn(C[C@H](O)c4ccccc4)nn3)c12` [Compound 04F03, O=C1NC=NC=2NC=C(C=3N=NN(C3)C[C@H](O)c4ccccc4)C12], the inhibition at 1 µM in assay [2] came out at 57%.

On to `C[C@@H](CN)n1cc(-c2c[nH]c3nc[nH]c(=O)c23)nn1` [Compound 03H12, O=C1NC=NC2=C1C(C3=CN([C@H](CN)C)N=N3)=CN2], for which the “% displaced tracer” value in assay [2] turned out to be 20%.

Consider `O=c1[nH]cnc2[nH]cc(-c3cn(C[C@@H]4CC(F)(F)CO4)nn3)c12` [Compound 01A11, F[C@]1(F)CO[C@H](CN2N=NC(C=3C=4C(=O)NC=NC4NC3)=C2)C1], for which the inhibition at 1 µM in assay [2] was 44%.

Regarding `COC(=O)c1ccc(Cn2cc(-c3c[nH]c4nc[nH]c(=O)c34)nn2)o1` [Compound 01G08, O=C(OC)C=1OC(=CC1)CN2N=NC(C=3C=4C(=O)NC=NC4NC3)=C2], in assay [2], the inhibition at 1 µM amounted to 44%.

In the case of `O=c1[nH]cnc2[nH]cc(-c3cn(CCCc4ccccc4)nn3)c12` [Compound 03H07, O=C1NC=NC=2NC=C(C=3N=NN(C3)CCCc4ccccc4)C12], the inhibition at 1 µM in assay [2] was 61%.

Regarding `N[C@H]1CC[C@H](n2cc(-c3c[nH]c4nc[nH]c(=O)c34)nn2)CC1` [Compound 02D09, O=C1NC=NC=2NC=C(C=3N=NN(C3)[C@@H]4CC[C@@H]([NH3+])CC4)C12], the inhibition at 1 µM in assay [2] came to 21%.

As for `Cc1cc(F)cc(-n2cc(-c3c[nH]c4nc[nH]c(=O)c34)nn2)c1` [Compound 03C04, Fc1cc(N2N=NC(C=3C=4C(=O)NC=NC4NC3)=C2)cc(c1)C], the inhibition at 1 µM in assay [2] worked out at 17%.

Turning to `C[C@@H]1C[C@H](n2cc(-c3c[nH]c4nc[nH]c(=O)c34)nn2)c2ccsc2S1(=O)=O` [Compound 03D02, S1(=O)(=O)C=2SC=CC2[C@@H](N3N=NC(C=4C=5C(=O)NC=NC5NC4)=C3)C[C@H]1C], the inhibition at 1 µM in assay [2] was found to be 27%.

As for `Cc1nc(C)c(Cn2cc(-c3c[nH]c4nc[nH]c(=O)c34)nn2)o1` [Compound 03B08, O=C1NC=NC=2NC=C(C=3N=NN(C3)CC=4OC(=NC4C)C)C12], in assay [2], the inhibition at 1 µM stood at 50%.

`O=c1[nH]cnc2[nH]cc(-c3cn(C[C@@H]4CCCN4)nn3)c12` [Compound 03C09, O=C1NC=NC=2NC=C(C=3N=NN(C3)C[C@H]4[NH2+]CCC4)C12]: in assay [2], the inhibition at 1 µM was 58%.

`C[C@@H](CN)n1cc(-c2c[nH]c3nc[nH]c(=O)c23)nn1` [Compound 03C02, O=C1NC=NC=2NC=C(C=3N=NN(C3)[C@H](C[NH3+])C)C12]: the inhibition at 1 µM in assay [2] amounted to 40%.

For the molecule `CN(C)c1ccc(-n2cc(-c3c[nH]c4nc[nH]c(=O)c34)nn2)cc1` [Compound 01E01, O=C1NC=NC=2NC=C(C=3N=NN(c4ccc(N(C)C)cc4)C3)C12], the inhibition at 1 µM in assay [2] was 33%.

In the case of `CC(C)(C)OCCCn1cc(-c2c[nH]c3nc[nH]c(=O)c23)nn1` [Compound 03C07, O=C1NC=NC=2NC=C(C=3N=NN(C3)CCCOC(C)(C)C)C12], the inhibition at 1 µM in assay [2] is 42%.

As for `NC(=O)[C@@H](c1ccc(F)cc1)n1cc(-c2c[nH]c3nc[nH]c(=O)c23)nn1` [Compound 03B07, Fc1ccc(cc1)[C@@H](N2N=NC(C=3C=4C(=O)NC=NC4NC3)=C2)C(=O)N], in assay [2], the inhibition at 1 µM is 16%.

For the molecule `O=c1[nH]cnc2[nH]cc(-c3cn(C[C@H]4CCNC4)nn3)c12` [Compound 03C12, O=C1NC=NC=2NC=C(C=3N=NN(C3)C[C@@H]4C[NH2+]CC4)C12], the inhibition at 1 µM in assay [2] turned out to be 74%.

`C[C@@H](c1cnnn1C)n1cc(-c2c[nH]c3nc[nH]c(=O)c23)nn1` [Compound 01C01, O=C1NC=NC=2NC=C(C=3N=NN(C3)[C@H](C=4N(N=NC4)C)C)C12]: the inhibition at 1 µM in assay [2] was 33%.

On to `O=c1[nH]cnc2[nH]cc(-c3cn(Cc4cc(C5CC5)no4)nn3)c12` [Compound 01A07, O=C1NC=NC=2NC=C(C=3N=NN(C3)CC=4ON=C(C4)C5CC5)C12], for which the inhibition at 1 µM in assay [2] amounted to 77%.

In the case of `O=c1[nH]cnc2[nH]cc(-c3cn([C@H]4CCn5cccc5C4)nn3)c12` [Compound 02H10, O=C1NC=NC=2NC=C(C=3N=NN(C3)[C@@H]4CC=5N(C=CC5)CC4)C12], the inhibition at 1 µM in assay [2] worked out at 24%.

As for `COC[C@H](O)Cn1cc(-c2c[nH]c3nc[nH]c(=O)c23)nn1` [Compound 02G06, O=C1NC=NC=2NC=C(C=3N=NN(C3)C[C@@H](O)COC)C12], the inhibition at 1 µM in assay [2] worked out at 13%.

As for `O=c1[nH]cnc2[nH]cc(-c3cn(-c4ccc(CCO)cc4)nn3)c12` [Compound 02G03, O=C1NC=NC=2NC=C(C=3N=NN(c4ccc(cc4)CCO)C3)C12], the inhibition at 1 µM in assay [2] is 15%.

With `CC[C@@H](c1ccccc1F)n1cc(-c2c[nH]c3nc[nH]c(=O)c23)nn1` [Compound 02B09, Fc1c(cccc1)[C@@H](N2N=NC(C=3C=4C(=O)NC=NC4NC3)=C2)CC], in assay [2], the inhibition at 1 µM was 24%.

Take `O=c1[nH]cnc2[nH]cc(-c3cn(C4CCNCC4)nn3)c12` [Compound 02H04, O=C1NC=NC=2NC=C(C=3N=NN(C3)C4CC[NH2+]CC4)C12]: in assay [2], the inhibition at 1 µM came to 28%.

Take `O=c1[nH]cnc2[nH]cc(-c3cn(CC4CCNCC4)nn3)c12` [Compound 02C09, O=C1NC=NC=2NC=C(C=3N=NN(C3)CC4CC[NH2+]CC4)C12]: the inhibition at 1 µM in assay [2] worked out at 79%.

For the molecule `CN1CCN(CCn2cc(-c3c[nH]c4nc[nH]c(=O)c34)nn2)CC1` [Compound 03G10, O=C1NC=NC=2NC=C(C=3N=NN(C3)CC[N@H+]4CC[N@@H+](CC4)C)C12], the inhibition at 1 µM in assay [2] is 11%.

Take `O=c1[nH]cnc2[nH]cc(-c3cn([C@H]4CC5(CCCC5)Oc5ccc(Cl)cc54)nn3)c12` [Compound 02C05, Clc1cc2c(OC3(C[C@@H]2N4N=NC(C=5C=6C(=O)NC=NC6NC5)=C4)CCCC3)cc1]: in assay [2], the inhibition at 1 µM was found to be 55%.

With `O=c1[nH]cnc2[nH]cc(-c3cn(-c4ccc(CO)cc4)nn3)c12` [Compound 04B03, O=C1NC=NC=2NC=C(C=3N=NN(c4ccc(cc4)CO)C3)C12], in assay [2], the inhibition at 1 µM was 47%.

Consider `CC(CO)(CO)Cn1cc(-c2c[nH]c3nc[nH]c(=O)c23)nn1` [Compound 03B02, O=C1NC=NC=2NC=C(C=3N=NN(C3)CC(CO)(CO)C)C12], for which the inhibition at 1 µM in assay [2] was determined as 67%.
